ChEMBL document CHEMBL4219097, “Synthesis of 3-aza[4.4.3]propellanes with high σ1 receptor affinity” (Bioorg Med Chem, 2018)

Assays:
[1] = target: Sigma non-opioid intracellular receptor 1 (Cavia porcellus, UniProt Q60492); assay: Displacement of [3H]-(+)-pentazocine from sigma1 receptor in guinea pig brain cortex membranes measured after 120 mins by scintillation counting method; assay type: cell membranes
[2] = target: T1, Sigma intracellular receptor 2 (Rattus norvegicus, UniProt Q5U3Y7); assay: Displacement of [3H]DTG from sigma 2 receptor in rat liver membranes measured after 120 mins by scintillation counting method; assay type: cell membranes, Membrane
T1 sequence (Q5U3Y7 whole entry): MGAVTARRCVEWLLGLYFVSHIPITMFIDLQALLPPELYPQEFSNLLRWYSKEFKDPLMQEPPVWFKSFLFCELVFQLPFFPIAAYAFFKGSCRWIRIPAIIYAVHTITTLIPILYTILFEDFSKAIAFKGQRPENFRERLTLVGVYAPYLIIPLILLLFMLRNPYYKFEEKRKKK

[3] = Selectivity ratio of Ki for displacement of [3H]DTG from sigma 2 receptor in rat liver membranes to Ki for displacement of [3H]-(+)-pentazocine from sigma1 receptor in guinea pig brain cortex membranes; assay type: cell membranes
[4] = target: T2, Sigma intracellular receptor 2 (Rattus norvegicus) (UniProt Q5U3Y7); assay: Displacement of [3H]DTG from sigma 2 receptor in rat liver membranes at 1 uM measured after 120 mins by scintillation counting method; assay type: cell membranes; conditions: Membrane
T2 sequence (whole entry): T1 sequence (Q5U3Y7 whole entry)

[5] = target: Sigma non-opioid intracellular receptor 1 (Cavia porcellus) (UniProt Q60492); assay: Displacement of [3H]-(+)-pentazocine from sigma1 receptor in guinea pig brain cortex membranes at 1 uM measured after 120 mins by scintillation counting method; assay type: cell membranes
Sequence of Sigma non-opioid intracellular receptor 1 (Cavia porcellus) (Q60492 whole entry): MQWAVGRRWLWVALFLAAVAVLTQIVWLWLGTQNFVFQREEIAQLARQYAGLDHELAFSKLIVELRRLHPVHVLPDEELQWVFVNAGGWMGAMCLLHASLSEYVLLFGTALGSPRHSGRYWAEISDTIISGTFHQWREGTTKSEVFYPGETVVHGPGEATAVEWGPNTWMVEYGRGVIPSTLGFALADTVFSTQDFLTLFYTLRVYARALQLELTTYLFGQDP

Sequence of Sigma non-opioid intracellular receptor 1 (Q60492 whole entry): as above

c1ccc(CN2CCC34CCCCC3(CCC4)C2)cc1 (racemic)
Ki [1]: 17 nM
Ki [2]: 190 nM
Ratio Ki [3]: 11

OC1CC23CCCCC2(C1)CN(Cc1ccccc1)CC3 (racemic; anti) [listing 1 of 2 here]
Ki [1]: 122 nM
Ki [2]: 2040 nM

COc1ccc(C)cc1NC(=O)OC1CC23CCCCC2(C1)CN(Cc1ccccc1)CC3 (racemic; anti) [listing 1 of 2 here]
Ki [1]: 82 nM

COc1ccc(C)cc1NC(=O)OC1CC23CCCCC2(C1)CN(Cc1ccccc1)CC3 (racemic; anti) [listing 2 of 2 here]
inhibition [4]: 8%
Ratio Ki [3]: > 12

OC1CC23CCCCC2(C1)CN(Cc1ccccc1)CC3 (racemic; anti) [listing 2 of 2 here]
Ratio Ki [3]: 17

OC1CC23CCCCC2(C1)CN(Cc1ccccc1)CC3 (racemic; syn) [listing 1 of 2 here]
Ki [1]: 336 nM
Ki [2]: 690 nM

COc1ccc(C)cc1NC(=O)OC1CC23CCCCC2(C1)CN(Cc1ccccc1)CC3 (racemic; syn)
inhibition [5]: 12%
inhibition [4]: 0%

OC1CC23CCCCC2(C1)CN(Cc1ccccc1)CC3 (racemic; syn) [listing 2 of 2 here]
Ratio Ki [3]: 2
